These results are taken from patent US4996212A, “Antiinflammatory and anti-hyperproliferative compounds” (Schering Corporation, priority 1989, dated 1991).

One test addresses T1, 5-lipoxygenase (Rattus norvegicus, UniProt P12527).
T1 construct: at 3-12×10^7 intact neutrophils per ml; endogenous in cells; host or cells: neutrophils from the pleural exudate of male Wistar-Lewis rats (reversed passive Arthus reaction)
T1 sequence (P12527 1-673): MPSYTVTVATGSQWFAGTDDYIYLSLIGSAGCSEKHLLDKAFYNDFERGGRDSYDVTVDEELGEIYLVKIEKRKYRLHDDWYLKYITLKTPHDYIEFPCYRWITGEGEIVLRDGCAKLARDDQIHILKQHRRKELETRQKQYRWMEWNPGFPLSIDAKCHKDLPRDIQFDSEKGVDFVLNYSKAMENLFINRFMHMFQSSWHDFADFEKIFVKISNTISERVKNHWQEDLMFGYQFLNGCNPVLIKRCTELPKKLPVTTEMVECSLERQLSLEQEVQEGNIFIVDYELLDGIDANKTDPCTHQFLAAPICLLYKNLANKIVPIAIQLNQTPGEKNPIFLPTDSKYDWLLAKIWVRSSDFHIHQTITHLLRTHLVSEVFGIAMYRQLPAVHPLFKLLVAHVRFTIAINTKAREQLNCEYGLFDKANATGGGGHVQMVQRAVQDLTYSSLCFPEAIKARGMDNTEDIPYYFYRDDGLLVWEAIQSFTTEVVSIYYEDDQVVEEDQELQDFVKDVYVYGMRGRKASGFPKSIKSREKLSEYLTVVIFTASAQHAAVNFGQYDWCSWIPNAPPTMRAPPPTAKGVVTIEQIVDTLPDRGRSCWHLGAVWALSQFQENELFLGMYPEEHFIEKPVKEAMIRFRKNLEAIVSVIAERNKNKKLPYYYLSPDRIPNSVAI
Briefly: 5-lipoxygenase activity / arachidonic acid metabolism in rat neutrophils. It is filed as cell-based. The conditions noted are these: compound concentration 5×^10-5 Molar, [14C] arachidonic acid. How it is done: The effect of the compounds of the invention on 5-lipoxygenase activity is determined using rat neutrophils. Male Wistar-Lewis rats are injected intravenously with 5 mg BSA in 0.2 ml pyrogen free saline followed by an intrapleural injection of 500 ug of the IgG fraction of rabbit anti-BSA (Cappel Labs., Lot 17782) in 0.2 ml pyrogen free saline. Injections are made under light ether anesthesia. Four hours later, the pleural cavity exudate consisting of 85 to 95% neutrophils is removed. Neutrophils are isolated from the pleural exudates by centrifugation of 4° C. for 10 min at 200×g. The cell pellet is resuspended in 17 mM Tris HCl buffer, pH 7.2, containing 0.75% NH4 Cl to lyse contaminating erythrocytes followed by centrifugation at 4° C. for 5 min at 200×g. The pelleted neutrophils are rewashed in 50 mM Tris HCl, pH 7.4, containing 100 mM NaCl, followed by the same centrifugation. The cell pellet is resuspended in 50 mM Tris HCl, pH 7.4, containing 100 mM NaCl and 1 mM CaCl2, at 3-12×10^7 intact neutrophils per ml.
Solutions of compounds in methanol are dried, then resuspended in the cell suspension for 4 min. Arachidonic acid metabolism is determined by incubating 0.1 ml of this suspension with 40 uM [×^14 C] arachidonic acid (AA) (Amersham, 59 Ci/mole), in the presence of 0.1% BRIJ 56 and 10 uM A23187. Arachidonic acid metabolism as well as the various drug and reagent abbreviations are described in detail in Arch. Dermatol, Vol. 119, pages 541 to 547 (July 1983), the teachings of which are incorporated herein by reference. Assays run in triplicate are initiated by adding cells with inhibitor to a film of the BRIJ 56, arachidonic acid and A23187 at 37° C. After one minute, reactions are terminated by the addition of 2.4 ml of a chloroform:methanol (1:1 v/v) mixture and 0.9 ml of 0.1% formic acid. […] Products, leukotriene B4 (LTB4), 12-hydroxy heptadecatrienoic acid (HHT) and 5-hydroxy icosatetraenoic acid (5-HETE), are located by autoradiography and appropriate regions of the thin layer plates are scraped and counted in a liquid scintillation counter. […]

In test [1] the test system is Male Lewis inbred albino rats. Description: Reversed Passive Arthus Reaction (RPAR), paw volume. It is filed as in vivo. The conditions noted are these: po, rat paw RPAR. The method, then: Reversed Passive Arthus Reaction (RPAR) Animals, Materials and Methods
Male Lewis inbred albino rats weighing 180-220 grams obtained from Charles River Breeding Laboratories are used in these experiments. The rats are housed 3 animals/cage and food and water are allowed ad libitum.
The animals are numbered 1-3 in each cage and color marked for identification purposes.
All reagents and drugs are prepared just prior to the study. Crystallized and lyophilized bovine serum albumin (BSA), obtained from Sigma Chemical Company, is solubilized without shaking in cold sterile pyrogen free saline (10 mg/ml). Lyophilized anti-bovine serum albumin (IgG Fraction), obtained from Cappel Laboratories, is suspended in sterile distilled water and diluted with cold pyrogen free saline (PFS) just prior to use. The final concentration of anti-bovine serum albumin is 0.5 mg/ml of PFS. Both BSA and anti-BSA solutions are iced during use. Drugs are suspended or solubilized in an aqueous solution of methyl cellulose (MC) with a homogenizer just prior to administration.
Groups of animals (6/group) are dosed with drug in MC by gavage one hour prior to sensitization with BSA. […] The volume of mercury displaced is converted to weight and recorded. […] Paw volumes are also recorded with a plethysmograph during the development of the inflammation at 2 and 4 hours post-challenge.

The test system of another test is pleural cavity of rats. Description: reverse passive Arthus reaction in the pleural cavity of rats. Format: in vivo. The conditions noted are these: po, rat pleural cavity RPAR. The source says:
Another procedure for testing for acute antiinflammatory activity measures the reverse passive Arthus reaction in the pleural cavity of rats as described in Myers et al., Inflammation, Vol. 9, No. 1, 1985, pp. 91-98.

As to `O=c1c2c(c3cccnc3n1-c1ccccc1)N(c1ccccc1)CC2` [1,2,3,5-tetrahydro-1,5-diphenyl-4H-pyrrolo[3,2-c][1,8]napthyridin-4-one], on 5-lipoxygenase, the “inhibition of HETE production” value is about 60%, the “inhibition of HHT production” value is recorded as “about 40%” and the “inhibition of LTB4 production” value is reported as about 60%.

As to `O=c1c2c(c3cccnc3n1-c1ccccc1)NCC2` [1,2,3,5-tetrahydro-5-phenyl-4H-pyrrolo[3,2-c][I, 8]napthyridin-4-one], the ED50 (commonly the midpoint of the dose-response relation) was about 25 mg/kg in test [1] and under 25 mg/kg with pleural cavity of rats.

Consider `CCOC(=O)N1CCc2c1c1cccnc1n(-c1ccccc1)c2=O` [2,3,4,5-tetrahydro-4-oxo-5-phenyl-1H-pyrrolo[3,2-c][1,8]napthyridine-1-carboxylic acid, ethyl ester], for which the ED50 with pleural cavity of rats was about 25 mg/kg.
